Reference: patent US20240238392A1 (priority 2023, published 2024)
Where no end group is shown, it is not given here.

Columns and labels:
[1] = test system: acute heart failure caused by viral infection; settings: human, in vivo
[2] = test system: chronic heart failure caused by systolic dysfunction; settings: human, in vivo
[3] = test system: chronic heart failure caused by diastolic dysfunction; settings: human, in vivo
[4] = molecular target: neurokinin-1 receptor (Rattus norvegicus, UniProt P14600); settings: in vivo; cited from earlier work
Chain of neurokinin-1 receptor (P14600 whole entry): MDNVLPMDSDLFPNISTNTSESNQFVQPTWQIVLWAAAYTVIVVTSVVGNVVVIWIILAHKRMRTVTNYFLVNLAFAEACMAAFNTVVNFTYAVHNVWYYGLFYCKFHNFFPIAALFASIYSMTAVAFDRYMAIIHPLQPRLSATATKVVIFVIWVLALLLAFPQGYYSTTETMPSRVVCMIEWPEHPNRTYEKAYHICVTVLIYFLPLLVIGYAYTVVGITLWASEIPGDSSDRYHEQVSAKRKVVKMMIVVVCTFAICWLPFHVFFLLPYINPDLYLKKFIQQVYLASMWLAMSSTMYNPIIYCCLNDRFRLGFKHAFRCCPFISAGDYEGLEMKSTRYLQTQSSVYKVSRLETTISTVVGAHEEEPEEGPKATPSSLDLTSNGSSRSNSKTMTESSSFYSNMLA

[5] = test system: isolated cardiac fibroblasts; settings: cited from earlier work

Which glutamate blood level [1] does the source give for `[N-]=[N+]=O` [nitrous oxide] here?
Its glutamate blood level is “lower than before”.

And the “patient-reported respiratory rate and peripheral edema” value [1]?
Its value is “significant improvement in respiratory rate and peripheral edema”.

What about the “substance P blood level” value [1] of the same compound?
Its value is “lower than before”.

For botulinum toxin, which “Substance P blood levels” value [2] is on record?
Its value is “lower than before”.

And the “patient-reported breath and fatigue” value [2]?
Its value is “significant improvement in breath and fatigue”.

And the glutamate blood level [3]?
Its glutamate blood level is “lower than before”.

And the “patient-reported breath and pulmonary edema” value [3]?
Its value is “significant improvement in breath and pulmonary edema”.

What about the “substance P blood level” value [3] of the same compound?
The value was “lower than before”.

With `CC(=O)N[C@@H](Cc1c[nH]c2ccccc12)C(=O)OCc1cc(C(F)(F)F)cc(C(F)(F)F)c1` [L732138] as the compound, how does the “cardiac fibrosis in SHR” value [4] read?
The value was “prevented”.

And the “increase of fetal gene expression by cardiomyocytes in SHR” value [4]?
The value was “prevented”.

And the “upregulation of endothelin-1 in SHR” value [4]?
The value was “prevented”.

What does the source list for “substance P: sensory nerve neuropeptide (tachykinin) acting on the neurokinin-1 receptor (RPKPQQFFGLM; ends and bridges not checked; UniProt P20366 58-68, looked up)”?
fibroblast function [5]: no changes in fibroblast function were observed; genes related to cell-cell adhesion, cell-matrix adhesion, and extracellular matrix regulation [5]: transiently up-regulated
